Test results published in US20230172132A1, “A METHOD FOR […] CONTENT IN A CROP PLANT” (SENSIENT COLORS, LLC, priority 2020, published 2023).

Key:
beet plant = assay: Pre-harvest foliar spraying of ethylene-releasing compound on beet leaves, betalain concentration of roots versus unsprayed controls; type: in vivo, Beta vulgaris
Text: In one embodiment, the method comprises the pre-harvest foliar spraying of an ethylene-releasing compound on a beet plant, wherein the pre-harvest foliar spraying of an ethylene-releasing compound leaves the mean betalain concentration in the roots of the treated plants increased by more than 200% when compared to controls without any spraying.
The method described herein may be used for commercially-relevant, large scale production of a betalain pigment, e.g., the large scale isolation from a beet crop plant. Accordingly, it may be that the isolation of betalains of step (iii) is done from at least 15 different harvested beet plants, more preferably from at least 100 different harvested beet plants, even more preferably from at least 500 different harvested beet plants, or such as from at least 1000 different harvested beet plants. It is evident that when at least 15 different harvested beet plants are used in isolation step (iii), then foliar spraying of ethylene-releasing compound (e.g., 2-Chloroethylphosphonic acid) of step (i) has been done on at least 15 different beet plants and in step (ii), at least 15 different crop plants have been harvested. As discussed above, the present inventors identified that by pre-harvest foliar spraying of 2-Chloroethylphosphonic acid (e.g., 2-Chloroethylphosphonic acid) on beet leaves the mean betalain concentration of treated plants increased by an increased amount when compared to controls without any spraying.
Preferably, the amount of isolated betalain pigment in step (iii) of the method is an amount of betalain pigment which is at least 15% higher (w/w), more preferably at least 20/a higher (w/w), even more preferably at least 25% higher (w/w), and most preferably at least 35% higher (w/w), as compared to the amount of betalain pigment that is isolated in a control experiment without use of the ethylene-releasing compound in step (i). The purpose of a control experiment is to analyze the effect of using ethylene-releasing compound (e.g. 2-Chloroethylphosphonic acid). […]

red beet (Beta vulgaris) = assay: Greenhouse testing: foliar spray of Ethephon on crop plants, pigment content of roots at harvest; type: in vivo; conditions: for Betanin / Vulgaxanthin: greenhouse, spray rate not given
Procedure: Planting of varieties were staggered across several weeks to vary maturity for one spray. Two spray rates were administered across all plants on one spray date ([…]). Harvesting was done 3-4 weeks after spray. Initial visualization was performed prior to crop samples sent to laboratory for evaluation.

[1] = harvest 7, 10, 13, 16, 19, 22, 25, 26, 29 and 35 weeks after planting, every harvest point

O=P(O)(O)CCCl [Ethephon, 2-Chloroethylphosphonic acid]
mean betanin concentration of treated roots (beet plant; [1]): higher
mean vulgaxanthin concentration of treated roots (beet plant; [1]): higher
mean betalain concentration of treated plants compared to controls without any spraying (beet plant; pre-harvest foliar spraying on beet leaves): increased
Betanin (red beet (Beta vulgaris); beet variety Chioggia): 320 mg/kg, dry basis
Vulgaxanthin (red beet (Beta vulgaris); beet variety Chioggia): 380 mg/kg, dry basis
Anthocyanin levels (red beet (Beta vulgaris); carrots, beets and radishes, spray 120 g/h and 360 g/h, harvest 3-4 weeks after spray): Enhanced
Betanin (red beet (Beta vulgaris); red beet variety Nochowski): 9,400 mg/kg, dry basis
Vulgaxanthin (red beet (Beta vulgaris); red beet variety Nochowski): 6,700 mg/kg, dry basis
Betanin (red beet (Beta vulgaris); red beet variety Red Cloud): 6,000 mg/kg, dry basis
Vulgaxanthin (red beet (Beta vulgaris); red beet variety Red Cloud): 3,300 mg/kg, dry basis
Betanin (red beet (Beta vulgaris); red beet variety Ruby Queen): 3,500 mg/kg, dry basis
Vulgaxanthin (red beet (Beta vulgaris); red beet variety Ruby Queen): 800 mg/kg, dry basis
